Reference: patent US5532223A, “Use of aqueous soluble glucan preparations to stimulate platelet production” (priority 1995, dated 1996)
Like-named read-outs stand apart in the source and are kept apart here.

Assays:
Human Monocytes = test: TNF-α synthesis by human monocyte monolayers stimulated with glucan preparations (ELISA); assay type: cell-based; details: for TNF-α / TNF-α Mean ± SD: glucan 1 mg/ml; for TNF-α Mean ± SD: Table 3; for TNF-α stimulation (in words): human monocytes, Tables 3 and 4
Description: Human peripheral blood mononuclear cells were isolated (Janusz et al., (1987), J. Immunol., 138: 3897-3901) from normal citrated and dextran-treated blood, washed in Hank's balanced salts solution (HBSS), lacking calcium, magnesium, and phenol red, and purified by gradient centrifugation on cushions of Ficoll-Paque (Pharmacia Fine Chemicals, Piscataway, N.J.). The mononuclear cells were collected into HBSS, washed twice, resuspended in RPMI 1640 Medium (Gibco, Grand Island, N.Y.) containing 1% heat-inactivated autologous serum (56° C. for 30 min.), and counted on the Coulter counter.
For the preparation of monocyte monolayers, 1 ml of 2.2×10^6 mononuclear cells/ml was plated into wells of 24-well tissue culture plates (CoStar, Cambridge, Mass.), incubated for 1 h at 37° C. in a humidified atmosphere of 5% CO2, and washed three times with RPMI to remove nonadherent cells. A second 1 ml aliquot of 2.2×10^6 mononuclear cells/ml was layered into each well and incubated for 2 hours as described above before removal of the nonadherent cells. By visual enumeration at 40× with an inverted phase microscope and a calibrated reticule, the number of adherent cells for 30 different donors was 0.77±0.20×10^6 per well (mean±SD). By morphology and nonspecific esterase staining, >95% of the adherent cells were monocytes.
Monocyte monolayers were incubated at 37° C. in the CO2 chamber for 0 to 8 h with 0.5 ml of RPMI, 1% heat-inactivated autologous serum, 10 mM HEPES, and 5 mM MgCl2 in the absence and presence of various glucan preparations. The culture supernatant was removed, clarified by centrifugation at 14,000 g for 5 min at 4° C., and stored at -70° C. before assay of cytokines.
The data are expressed as pg per 10^6 monocytes, which was calculated by dividing the quantity of cytokine in 0.5 ml of supernatant by the number of monocytes per well.

[1] = test system: IL-1, TNF, IL-6, IL-8 and GM-CSF; test: Clinical trial in healthy males: serum cytokines; assay type: in vivo, human
Experimental: (§1) A randomized, double-blind, placebo-controlled clinical trial was conducted on healthy males to evaluate the safety of neutral soluble glucan (2.25 mg/kg) injected by intravenous infusion compared to a placebo control. […] The results are consistent with the in vitro data reported in the earlier examples.

Staphylococcus aureus = test: Wound healing, full thickness wound infected with Staphylococcus aureus in hairless mice; assay type: in vivo, mouse; details: wound treated with 10^7 Staphylococcus aureus; topical
Experimental: Wound healing studies were performed on hairless mouse models having full thickness wounds with and without Staphylococcus aureus infection. […] Incisions were closed using steel clips at 1 cm intervals. Formulations of neutral soluble glucan in phosphate buffered saline were applied 30 minutes following wounding and reapplied at 24 hour intervals during the seven day post-operative period. Two micrograms of neutral soluble glucan/mouse per day was topically applied. Wounds were examined daily and rank-ordered for effectiveness of formulation for enhancement of visual based wound healing each day. Wounds were scored for closure on a scale of 0-5, with 5 indicating the most healing. In one group of mice that served as the infection model, the wound was treated with a culture of 10^7 Staphylococcus aureus 30 minutes after wounding and 2 hrs prior to treatment with the neutral soluble glucan formulation.

[2] = test system: Human Peripheral Blood Mononuclear Cells (TNFα); test: In vitro TNFα synthesis by human peripheral blood mononuclear cells (radioimmunoassay), stimulation and priming; assay type: cell-based; details: for TNFα: 24 hours, mean of two donors
Experimental: (§2) Venous blood was obtained from healthy male volunteers and mononuclear cells were fractionated by Ficoll-Hypaque centrifugation. The mononuclear cells were washed, resuspended in endotoxin-free RPMI-1640 culture medium ultrafiltered to remove endotoxins as described elsewhere (Dinarello et al., 1987, J. Clin. Microbiol. 25:1233-8) at a concentration of 5×10^6 cells/ml and were aliquoted into 96-well microtiter plates (Endres et al., 1989, N. E. J. Med. 320:265-271). The cells were then incubated with either 1 ng/ml endotoxin (lipopoly-saccharide, E. coli 055:B5, Sigma, St. Louis), or 10 to 1000 ng/ml PGG, at 37° C. for 24 hours in 5% CO2 and then lysed by three freeze-thaw cycles (Endres et al., 1989, N. E. J. Med. 320:265-271). Synthesis of IL-1β and TNFα were determined by specific radioimmunoassays as described elsewhere (Lisi et al., 1987, Lymph Res. 6:229-244; Lonnemann et al., 1988, Lymph. Res. 7:75-84; Van der Meer et al., 1988, J. Leukocycte Biol. 43:216-223.
(§3) To determine if neutral soluble glucan could act as a priming agent for cytokine synthesis with endotoxin, a known cytokine stimulant, mononuclear cells were pre-incubated with 1, 10, and 1000 ng/ml underivatized, aqueous soluble β-glucan for 3 hours at 37° C. in 5% CO2. The cells were washed to remove neutral soluble glucan and were then incubated with 1 ng/ml endotoxin as described above. IL-1β and TNFα were determined as described above.

[3] = water
full thickness wounds = test: Wound healing, full thickness wound in hairless mice; assay type: in vivo, mouse
Experimental: Wound healing studies were performed on hairless mouse models having full thickness wounds with and without Staphylococcus aureus infection.
Incisions were closed using steel clips at 1 cm intervals.
[…] Two micrograms of neutral soluble glucan/mouse per day was topically applied. Wounds were examined daily and rank-ordered for effectiveness of formulation for enhancement of visual based wound healing each day. Wounds were scored for closure on a scale of 0-5, with 5 indicating the most healing. In one group of mice that served as the infection model, the wound was treated with a culture of 10^7 Staphylococcus aureus 30 minutes after wounding and 2 hrs prior to treatment with the neutral soluble glucan formulation.
Histological evaluation of the wound site of each test group was made. The dermis of the control group (untreated wound) was heavily infiltrated with both lymphocytes and monocytes/macrophages. However, re-epithelialization that occurred at the epidermal layer was incomplete.

platelets = test: Platelet count in irradiated mice; assay type: in vivo, mouse; details: single IV bolus 20 hours prior to 7.5-Gy total-body irradiation, fourteen days after irradiation, FIG. 7
Experimental: The platelet proliferation stimulatory effect of the neutral soluble glucan was tested in an animal model system following irradiation or administration of the chemotherapeutic agent cisplatin.
More specifically, neutral soluble glucan prepared as described in Example 1 was administered to groups of 10 mice in a single IV bolus 20 hours prior to radiation exposure. Mice were bilaterally exposed to a total-body irradiation of 7.5-Gy. Fourteen days after irradiation the mice were sacrificed and whole blood samples were analyzed for peripheral blood counts.

[4] = human, in vivo, iv
Experimental: as §1

monocytes = test: Clinical trial in healthy males: monocyte counts; assay type: in vivo, human; details: 2.5 mg/kg, N 6
[5] = test system: monocytes and neutrophils (killing activity); test: Ex vivo microbicidal activity of normal volunteers; assay type: in vivo, human; details: 2.5 mg/kg, normalized with respect to the saline control, N 6
[6] = test system: polymicrobic infectious challenge (cecal inoculum); test: Rat model for intra-abdominal sepsis; assay type: in vivo; details: rats
neutrophils = test: Clinical trial in healthy males: absolute neutrophil counts; assay type: in vivo, human; details: 2.5 mg/kg, N 6
[7] = test system: β-glucan receptor on human monocytes; test: Avidity for the glucan receptor: inhibition of monocyte ingestion of zymosan particles; assay type: cell-based; details: for % Inhibition of monocyte ingestion: mean of two experiments
Experimental: Monolayers of human monocytes, prepared on siliconized glass coverslips (Czop et al., 1978, J. […] The monocyte monolayers were then washed twice with 50 ml of RPMI 1640 medium and were layered with 0.25 ml of 4.8×10^6 /ml zymosan particles (Czop and Austen, 1985, J. Immunol., 134:2588-2593). After a 30 minute incubation at 37° C., the monolayers were washed three times with 50 ml of Hank's balanced salt solution to remove noningested zymosan particles. The monolayer were then fixed and stained with Giemsa. The ingestion of zymosan particles by at least 300 monocytes per monolayer was determined by visual observation under a 1000× light microscope.
The percent inhibition of monocyte ingestion was determined by subtracting the percentage of monocytes ingesting targets after pretreatment with the neutral soluble glucan from the percentage ingesting targets after pretreatment with buffer, dividing this number by the percentage ingesting targets after pretreatment with buffer and multiplying by 100.

[8] = test system: Human Peripheral Blood Mononuclear Cells (IL-1β); test: In vitro IL-1β synthesis by human peripheral blood mononuclear cells (radioimmunoassay), stimulation and priming; assay type: cell-based; details: for IL-1β: 24 hours, mean of two donors
Experimental: as §2, §3

[9] = pre-incubation 10-1000 ng/ml, then endotoxin as co-stimulant
[10] = mice treated topically for three days, in phosphate buffered saline

Laminarin [reference compound]
TNF-α (Human Monocytes; Table 3, column 1): 372 pg/10^6 monocytes | TNF-α (Human Monocytes; Table 3, column 2): 324 pg/10^6 monocytes | TNF-α (Human Monocytes; Table 3, column 3): 227 pg/10^6 monocytes | TNF-α Mean ± SD (Human Monocytes): 308 ± 74 pg/10^6 monocytes | TNF-α (Human Monocytes; Table 4): 1312 pg/10^6 monocytes | TNF-α stimulation (in words) (Human Monocytes): stimulated

poly-(1-6)-β-D-glucopyranosyl-(1-3)-β-D-glucopyranose [Neutral soluble glucan]
TNF-α (Human Monocytes; Table 3, column 1): 44 pg/10^6 monocytes | TNF-α (Human Monocytes; Table 3, column 2): 51 pg/10^6 monocytes | TNF-α (Human Monocytes; Table 3, column 3): 33 pg/10^6 monocytes | TNF-α Mean ± SD (Human Monocytes): 43 ± 9 pg/10^6 monocytes | TNF-α (Human Monocytes; Table 4): 16 pg/10^6 monocytes | TNF-α stimulation (in words) (Human Monocytes): no stimulation of TNF-α | elevation in IL-1, TNF, IL-6, IL-8 and GM-CSF ([1]; 2.25 mg/kg intravenous infusion): no observed elevation | changes in serum IL-1 and TNF ([1]; over time, FIGS. 5 and 6): no changes occurred | infection of the wound (in words) (Staphylococcus aureus): effectively eliminated infection | progression to sepsis (in words) (Staphylococcus aureus): prevented the progression to sepsis | priming of TNFα synthesis compared to endotoxin alone (in words) [2, 9]: did not result in any amplification | TNFα ([2]; stimulant 10 ng/ml): 0.16 ng/mL | TNFα ([2]; stimulant 100 ng/ml): 0.16 ng/mL | TNFα ([2]; stimulant 1000 ng/ml): 0.14 ng/mL | TNFα synthesis over control buffer treated cells (in words) ([2]; used alone as stimulant): did not induce increased levels | aqueous solubility [3]: approximately 100 mg/ml | aqueous solubility ([3]; pH 13): ~150 mg/mL | histology of wounded tissue: cell infiltration (full thickness wounds; [10]): heavy infiltration of macrophages and lymphocytes | histology of wounded tissue: tissue integrity (full thickness wounds; [10]): Tissue integrity was good | wound healing (in words) (full thickness wounds; topically applied, two micrograms/mouse per day): accelerated wound healing within the dermal layer of the wound | platelet cell count relative to saline treated control levels (platelets): ~3 fold | fever or inflammatory reactions [4]: none of the patients experienced fever or inflammatory reactions | adverse effects ([4]; 2.25 mg/kg): No adverse effects were observed | Monocyte Counts, Mean (monocytes; B = Baseline measurement): 0.24 × 1000/μl | Monocyte Counts, Mean (monocytes; Hour 8): 0.63 × 1000/μl | Monocyte Counts, Mean (monocytes; Hour 12): 0.67 × 1000/μl | Monocyte Counts, Mean (monocytes; Hour 24): 0.31 × 1000/μl | Mean Change in % Killing ([5]; Day 2): 48.96% | Mean Change in % Killing ([5]; Day 3): 39.22% | Mean Change in % Killing ([5]; Day 6): 31.17% | Mean Change in % Killing ([5]; Hour 3): 42.86% | Mean Change in % Killing ([5]; Hour 6): 32.33% | Mean Change in % Killing ([5]; Hour 24): 20.90% | protection from lethal bacterial challenge (in words) [6]: protects rats from lethal bacterial challenge | Mortality (dead/total) ([6]; 100 μg/0.2 ml intramuscularly 24 hours and 4 hours prior to challenge, P vs. Saline <0.01): 2/10 | Absolute Neutrophil Counts, Mean (neutrophils; B = Baseline measurement): 4.11 × 1000/μl | Absolute Neutrophil Counts, Mean (neutrophils; Hour 8): 11.29 × 1000/μl | Absolute Neutrophil Counts, Mean (neutrophils; Hour 12): 8.18 × 1000/μl | Absolute Neutrophil Counts, Mean (neutrophils; Hour 24): 5.32 × 1000/μl | receptor binding capacity (in words) ([7]; 50 μg/ml and 500 μg/ml): higher receptor binding capacity than Peak B | % Inhibition of monocyte ingestion ([7]; 50 μg/ml): 74% | % Inhibition of monocyte ingestion ([7]; 500 μg/ml): 86% | priming of IL-1β synthesis compared to endotoxin alone (in words) [8, 9]: did not result in any amplification | IL-1β ([8]; stimulant 10 ng/ml): 0.13 ng/mL | IL-1β ([8]; stimulant 100 ng/ml): 0.12 ng/mL | IL-1β ([8]; stimulant 1000 ng/ml): < 0.10 ng/mL | IL-1β synthesis over control buffer treated cells (in words) ([8]; used alone as stimulant): did not induce increased levels
